Data as given in paper PMC7031697, “Mechanism of Activation of AMPK by Cordycepin” (Cell Chemical Biology, 2020).
Read-outs that look alike come from different tables or passages of the source.

How the values were obtained:
[1] = tested on: AMPK; assay: Effect of adenosine kinase and transport inhibitors on AMPK activation in HepG2 cells; assay type: cell-based, human; settings: 1 μM ABT-702 or 0.5 μM dipyridamole; for effect of cordycepin to activate and phosphorylate AMPK: 300 μM cordycepin 1 h; for effects of AICA riboside on AMPK: 3 mM AICAR 1 h
Protocol: Endogenous AMPK in crude cell lysates was first immunoprecipitated using an equal mixture of anti-α1 and –α2 antibodies (150 μg protein) by incubation at 4°C for 2 hr on a roller mixer. After extensive washing, the immunoprecipitates were assayed for AMPK activity (50 μg per assay, total assay volume 50 μl) using the AMARA peptide (200 μM) as substrate in the presence of 200 μM AMP, 5 mM MgCl2 and 200 μM [γ-^32P]ATP ([Fyffe et al., 2018]).

[2] = target: T1, human α2β2γ1 complex (Homo sapiens, UniProt P54619+P54646); assay: AMPK assay using ATP or CoTP as co-substrate (GST-ACC1 phosphorylation); assay type: biochemical; settings: for Km / estimated Vmax as phosphate donor: GST-ACC1 substrate; for Km: Mg2+ at constant 4.8 mM excess, read-out: Km as phosphate donor; for estimated Vmax as phosphate donor: Michaelis-Menten fit; for effect on allosteric activation by AMP: at high concentrations (5 mM); for allosteric activation: 30 μM AMP
T1 construct: made in house
Protocol: As ^32P-labelled CoTP was not available, the experiments in Figures 3C and 3D were performed using non-radioactive CoTP and utilized as co-substrate a construct of glutathione-S-transferase fused at the N-terminus of residues 60-94 of rat ACC1 ([Scott et al., 2002]), which includes the Ser79 phosphorylation site. Bacterially expressed GST-ACC (0.5 μg) was incubated for 10 min in a total volume of 25 μl with bacterially expressed human AMPK (30 ng of α2β2γ1 complex, previously phosphorylated on Thr172 using CaMKK2) with ATP or CoTP as indicated, and sufficient MgCl2 to maintain a constant 4.8 mM excess of [Mg^2+] over [ATP]. Phosphorylation of this substrate was detected using anti-pACC antibody and quantified using a LiCor Odyssey imager.

[3] = tested on: AMPK purified from rat liver; assay: Allosteric activation of purified rat liver AMPK (SAMS peptide, cell-free); assay type: biochemical
Protocol: AMPK (15 ng) purified from rat liver was assayed in solution using the SAMS peptide as substrate ([Fyffe et al., 2018]) in the presence of AMP or CoMP (concentrations specified in Figure legends), and either 5 mM MgCl2 and 200 μM [γ-^32P]ATP or 9.8 mM MgCl2 and 5 mM [γ-^32P]ATP, thus maintaining a constant excess of [Mg^2+] over [ATP] ([Storer and Cornish-Bowden, 1976]). Total assay volume was 25 μl.

[4] = target: T2, AMPK complexes containing the R531G mutant (Homo sapiens, UniProt Q9UGJ0, R531G); assay: AMPK activity in anti-FLAG immunoprecipitates, HepG2 cells with FLAG-tagged AMPK-γ2 R531G mutant; assay type: cell-based; settings: 1 h, 300 μM cordycepin, 10 mM phenformin or 300 μM A-769662
T2 construct: expressed in transfected cells; host or cells: HepG2 (transient, Fugene 6)
Protocol: (§1) HepG2 cells ([…]) were cultured in Minimum Essential Medium (MEM) supplemented with 10% (v/v) FBS, 1% (v/v) non-essential amino acids and 1% (v/v) penicillin/streptomycin. Transient transfection of DNAs encoding FLAG-tagged AMPK-γ2 or an R531G mutant of AMPK-γ2 were carried out 36-48 hr prior to experiments using Fugene 6 according to manufacturers’ instructions. U2OS cells ([…]) were cultured in Dulbecco’s Modified Eagle’s Medium (DMEM) supplemented with 10% (v/v) FBS and 1% (v/v) penicillin/streptomycin.
(§2) HepG2 cells were transiently transfected with DNAs encoding FLAG-tagged wild type AMPK-γ2 or the R531G mutant, using Fugene 6 according to the manufacturers’ instructions. After transfection for 48 hr, cells were treated with various agents as described, and cell lysates prepared ([Hawley et al., 2018]). FLAG-tagged AMPK was then immunoprecipitated from 150 μg total protein by incubation at 4°C for 2 hr on a roller mixer with 9 μl of EZview Red anti-FLAG M2 affinity gel. After extensive washing, the immunoprecipitates were assayed for AMPK activity (50 μg per assay in a total volume of 50 μl) using the AMARA peptide (200 μM) as substrate in the presence of 200 μM AMP, 5 mM MgCl2 and 200 μM γ-^32P-ATP as described previously ([Fyffe et al., 2018]).

[5] = target: T3, AMPK complexes containing WT γ2 (Homo sapiens, UniProt Q9UGJ0); assay: AMPK activity in anti-FLAG immunoprecipitates, HepG2 cells with FLAG-tagged WT AMPK-γ2; assay type: cell-based; settings: 1 h, 300 μM cordycepin, 10 mM phenformin or 300 μM A-769662
T3 construct: expressed in transfected cells; host or cells: HepG2 (transient, Fugene 6)
Protocol: as §1, §2

[6] = tested on: rat liver AMPK; assay: Cell-free inhibition of Thr172 dephosphorylation by PP2Cα; assay type: biochemical; settings: fit of AMPK activity as a function of CoMP concentration; read-out: EC50 of protection against inactivation and Thr172 dephosphorylation by PP2Cα
Protocol: These were as described previously ([Fyffe et al., 2018]) with some modifications. Rat liver AMPK (12.5 μg/ml) was incubated in a shaking incubator at 30°C for 10 min in Hepes buffer (50 mM Na Hepes pH 7.4, 150 mM NaCl, 1 mM dithiothreitol, 0.02% (w/v) Brij-35) with MgCl2 and sufficient PP2Cα to yield about 70% inactivation in the absence of added nucleotide. Aliquots were removed for Western blotting and AMPK assay. Kinase assays were performed immediately after a further 100-fold dilution, which was sufficient to prevent dephosphorylation during the assay.

[7] = target: T1, human α2β2γ1 complex; assay: Cell-free promotion of Thr172 phosphorylation by LKB1; assay type: biochemical; settings: varying CoMP, 200 μM ATP
Protocol: These were as described previously ([Fyffe et al., 2018]) with some modifications. Bacterially expressed human AMPK (α2β2γ1 complex, unphosphorylated on Thr172, 500 ng) was incubated for 10 min in a total volume of 25 μl with 200 μM ATP, […] with/without the LKB1:STRAD:MO25 complex (10 ng), in the presence or absence of AMP (200 μM) or cordycepin as indicated. Aliquots were removed for Western blotting and AMPK assays.

[8] = 200 μM ATP, for CoMP estimated with maximal activation constrained to 4.4-fold

T1 sequence (P54646 whole entry): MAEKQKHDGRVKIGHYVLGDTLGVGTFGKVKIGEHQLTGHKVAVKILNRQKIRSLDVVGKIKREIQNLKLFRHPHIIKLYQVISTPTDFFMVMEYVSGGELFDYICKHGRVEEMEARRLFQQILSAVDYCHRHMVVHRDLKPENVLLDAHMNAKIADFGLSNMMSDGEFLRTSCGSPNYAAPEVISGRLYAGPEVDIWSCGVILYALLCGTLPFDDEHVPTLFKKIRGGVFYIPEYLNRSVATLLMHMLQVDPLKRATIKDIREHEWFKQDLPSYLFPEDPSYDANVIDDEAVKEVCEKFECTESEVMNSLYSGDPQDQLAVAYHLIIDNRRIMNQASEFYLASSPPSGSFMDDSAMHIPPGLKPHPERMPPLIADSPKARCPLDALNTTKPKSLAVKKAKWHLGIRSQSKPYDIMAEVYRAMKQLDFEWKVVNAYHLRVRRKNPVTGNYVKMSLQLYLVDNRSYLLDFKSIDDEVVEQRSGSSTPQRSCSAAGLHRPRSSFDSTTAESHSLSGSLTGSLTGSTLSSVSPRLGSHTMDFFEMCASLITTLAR
T1 sequence (O43741 whole entry partner): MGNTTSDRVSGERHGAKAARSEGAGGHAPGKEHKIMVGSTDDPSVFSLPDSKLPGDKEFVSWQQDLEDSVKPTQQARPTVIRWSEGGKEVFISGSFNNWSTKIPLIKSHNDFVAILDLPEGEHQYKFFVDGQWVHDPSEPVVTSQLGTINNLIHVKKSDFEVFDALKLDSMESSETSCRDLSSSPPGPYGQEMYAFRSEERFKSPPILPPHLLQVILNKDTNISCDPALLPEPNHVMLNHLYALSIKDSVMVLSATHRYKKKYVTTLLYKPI
T1 sequence (P54619 whole entry): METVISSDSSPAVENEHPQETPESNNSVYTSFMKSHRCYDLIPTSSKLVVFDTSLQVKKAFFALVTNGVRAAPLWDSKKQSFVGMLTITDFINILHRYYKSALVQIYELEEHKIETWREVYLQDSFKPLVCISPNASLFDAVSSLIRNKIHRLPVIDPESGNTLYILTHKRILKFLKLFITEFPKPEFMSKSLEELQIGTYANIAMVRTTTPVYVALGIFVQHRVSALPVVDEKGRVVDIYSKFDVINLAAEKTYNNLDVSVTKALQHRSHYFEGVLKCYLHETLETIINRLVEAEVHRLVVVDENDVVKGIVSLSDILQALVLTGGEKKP
T3 sequence (Q9UGJ0 whole entry, one chain of several): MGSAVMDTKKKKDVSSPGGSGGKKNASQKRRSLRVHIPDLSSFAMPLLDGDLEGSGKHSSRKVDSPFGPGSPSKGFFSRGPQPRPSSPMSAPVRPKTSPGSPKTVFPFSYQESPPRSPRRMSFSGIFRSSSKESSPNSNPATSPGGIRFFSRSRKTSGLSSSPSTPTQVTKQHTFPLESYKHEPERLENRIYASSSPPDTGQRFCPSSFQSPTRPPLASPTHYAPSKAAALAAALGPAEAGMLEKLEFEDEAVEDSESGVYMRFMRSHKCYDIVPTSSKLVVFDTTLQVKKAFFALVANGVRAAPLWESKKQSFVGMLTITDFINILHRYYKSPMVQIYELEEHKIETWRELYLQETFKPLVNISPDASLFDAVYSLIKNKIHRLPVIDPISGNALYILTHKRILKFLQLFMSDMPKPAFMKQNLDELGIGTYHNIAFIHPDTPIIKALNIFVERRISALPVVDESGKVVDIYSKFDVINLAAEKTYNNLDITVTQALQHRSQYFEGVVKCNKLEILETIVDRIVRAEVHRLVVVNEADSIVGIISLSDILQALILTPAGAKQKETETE
T2 sequence (Q9UGJ0 whole entry R531G, one chain of several): as the sequence (Q9UGJ0 whole entry, one chain of several) above, with R531G counted along it

In the case of `Nc1ncnc2nc(-c3ccc(N4CCOCC4)nc3)cc(-c3cccc(Br)c3)c12` [ABT-702, 4-amino-5-(3-bromophenyl)-7-(6-morpholinopyridin-3-yl)pyrido[2,3-d]pyrimidine], the “effect of cordycepin to activate and phosphorylate AMPK” value [1] is reported as “blocked” and the “effects of AICA riboside on AMPK” value [1] is reported as “also blocked”.

`OCCN(CCO)c1nc(N2CCCCC2)c2nc(N(CCO)CCO)nc(N3CCCCC3)c2n1` [dipyridamole] was tested, and the “effect of cordycepin to activate and phosphorylate AMPK” value [1] was “blocked” and the “effects of AICA riboside on AMPK” value [1] was “also blocked”.

In the case of `Nc1ncnc2c1ncn2[C@@H]1O[C@H](COP(=O)(O)OP(=O)(O)OP(=O)(O)O)C[C@H]1O` [CoTP, cordycepin triphosphate], the Km [2] is reported as 22 ± 3 µM, the “estimated Vmax as phosphate donor” value [2] is reported as 0.92 and the “effect on allosteric activation by AMP” value [2] is reported as “antagonize”.

With `Nc1ncnc2c1ncn2[C@@H]1O[C@H](COP(=O)(O)O)[C@@H](O)[C@H]1O` [AMP, reference compound] the maximal allosteric activation ([3]; 200 μM ATP) was 4.4 ± 0.1 fold, the EC50 [3, 8] was 3.8 ± 0.2 µM and the IC50 ([3]; 200 μM ATP, read-out: IC50 (concentration giving half-maximal inhibition)) was 1600 ± 100 µM. The allosteric activation ([2]; ATP or CoTP concentrations increased to 5 mM) was “abolished” and the allosteric activation ([2]; kinase assayed using either 200 μM ATP or CoTP as substrate) was 4 fold.

In the case of `[H]/N=C(/N)N/C(=N/[H])NCCc1ccccc1` [phenformin], the “activation of AMPK complexes containing the R531G mutant” value [4] is reported as “not activated” and the “activation of AMPK complexes containing WT γ2” value [5] is reported as “activated”.

`Nc1ncnc2c1ncn2[C@@H]1O[C@H](COP(=O)(O)O)C[C@H]1O` [CoMP, cordycepin 5′-monophosphate] was tested, and the EC50 [6] was 68 ± 12 µM, the “activation and Thr172 phosphorylation of AMPK by LKB1” value [7] was “promoted” and the “potency as an allosteric activator, less potent than AMP” value ([3]; 200 μM ATP) was “≈ 30 fold”. It also gave an IC50 ([3]; 200 μM ATP, estimated, maximal activation constrained to 4.4-fold, read-out: IC50 of inactivation) of 500 ± 180 µM, an EC50 [3, 8] of 120 ± 50 µM and an EC50 ([3]; 5 mM ATP, maximal activation constrained to 4.4-fold) of 1400 µM.

`N#Cc1c(O)c2c(-c3ccc(-c4ccccc4O)cc3)csc2[nH]c1=O` [A-769662] was tested, and the “activation of AMPK complexes containing the R531G mutant” value [4] was “still activated” and the “activation of AMPK complexes containing WT γ2” value [5] was “activated”.

With `Nc1ncnc2c1ncn2[C@@H]1O[C@H](COP(=O)(O)OP(=O)(O)OP(=O)(O)O)[C@@H](O)[C@H]1O` [ATP] the Km [2] was 36 ± 3 µM, the “estimated Vmax as phosphate donor” value [2] was 1.02 and the “effect on allosteric activation by AMP” value [2] was “antagonize”.
